In patent US8536173B2, “Tetrahydroquinoxaline urea derivatives as modulators of 11-B-hydroxysteroid dehydrogenase type I” (SANOFI, priority 2009, dated 2013):
Structures can show the parent of a compound that is named as a salt.

System: not given
Details: not given

melting point	SMILES
125 to 163 °C	CONC(=O)[C@]12CC3CC(C1)[C@H](NC(=O)N1CCN(c4ccc(N5CCN(S(=O)(=O)C6CC6)CC5)cn4)c4ccccc41)C(C3)C2
165 °C	CC(C)(C)N1CCN(c2ccc(N3CCN(C(=O)N[C@H]4C5CC6CC4C[C@@](NS(C)(=O)=O)(C6)C5)c4ccccc43)nc2)CC1
160 to 170 °C	CC(C)(C)N1CCN(c2ccc(N3CCN(C(=O)N[C@H]4C5CC6CC4C[C@@](Cc4nn[nH]n4)(C6)C5)c4ccccc43)nc2)CC1
252 °C	CC(C)(C)N1CCN(c2ccc(N3CCN(C(=O)N[C@H]4C5CC6CC4C[C@@](CNS(C)(=O)=O)(C6)C5)c4ccccc43)nc2)CC1 (as salt: hydrochloride)
192 to 196 °C	CC(C)(C)N1CCN(c2ccc(N3CCN(C(=O)N[C@H]4C5CC6CC4C[C@@](C(O)C(F)(F)F)(C6)C5)c4ccccc43)nc2)CC1 (stereo partly drawn)
197 °C	NC[C@]12CC3CC(C1)[C@H](NC(=O)N1CCN(c4ccc(N5CCN(S(=O)(=O)C6CC6)CC5)cn4)c4ccccc41)C(C3)C2 (as salt: hydrochloride)
135 °C	Cc1noc([C@]23CC4CC(C2)[C@H](NC(=O)N2CCN(c5ccc(N6CCN(S(=O)(=O)C7CC7)CC6)cn5)c5ccccc52)C(C4)C3)n1
120 to 135 °C	NC(=O)C[C@]12CC3CC(C1)[C@H](NC(=O)N1CCN(c4ccc(N5CCN(S(=O)(=O)C6CC6)CC5)cn4)c4ccccc41)C(C3)C2

System: 11βHSD1 in the eyes
Details: healthy volunteers, after seven days of treatment; cited from earlier work

SMILES	IOP is reduced by
CC1(C)[C@@H](OC(=O)CCC(=O)O)CC[C@]2(C)[C@H]3C(=O)C=C4[C@@H]5C[C@@](C)(C(=O)O)CC[C@]5(C)CC[C@@]4(C)[C@]3(C)CC[C@@H]12 [carbenoxolone]	18%
